Entries after “also recorded” stand apart in the source; their conditions may differ. Counter-ions that a name gives are not always drawn.
Columns and labels:
5-HT1B receptor = 5-HT1B receptor (Homo sapiens, UniProt P28222); conditions: selective 5-HT1B receptor antagonist; British Journal of Pharmacology (2003) 138, 71-80; cited from earlier work
rb 5-HT1B receptors = rb 5-HT1B receptors (Oryctolagus cuniculus, UniProt P49144); conditions: British Journal of Pharmacology (1997) 120, 153; cited from earlier work
Sequence of rb 5-HT1B receptors (P49144 whole entry): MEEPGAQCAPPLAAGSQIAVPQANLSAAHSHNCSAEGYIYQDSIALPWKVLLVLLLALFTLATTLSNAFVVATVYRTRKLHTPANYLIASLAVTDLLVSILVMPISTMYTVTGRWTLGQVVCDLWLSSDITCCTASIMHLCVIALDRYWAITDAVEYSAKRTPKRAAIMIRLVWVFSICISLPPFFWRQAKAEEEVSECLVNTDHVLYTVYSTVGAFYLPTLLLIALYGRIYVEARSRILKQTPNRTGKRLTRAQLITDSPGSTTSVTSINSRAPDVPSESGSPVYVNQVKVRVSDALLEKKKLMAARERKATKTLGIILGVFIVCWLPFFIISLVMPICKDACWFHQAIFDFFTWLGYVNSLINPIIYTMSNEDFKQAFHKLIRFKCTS

Lrp5−/− mice = assay: pCPA treatment of WT and Lrp5−/− mice: bone histomorphometry, serum serotonin, gut TPH1 and brain TPH2 expression; type: in vivo; conditions: 300 mg/kg pCPA intraperitoneally three times per week, from 3 weeks to 12 weeks of age
Protocol: Consistent with the conclusion that the increase in serum serotonin level is responsible fully or partly for the bone phenotype of the Lrp5−/− mice is the discovery that pCPA, a serotonin synthesis inhibitor (Eldridge et al., 1981, Ann. Rev. Physiol. 43:121-135), prevented the appearance of the Lrp5−/− bone phenotype by decreasing serotonin production. WT and Lrp5−/− mice were treated with 300 mg/kg pCPA intraperitoneally three times per week, from 3 weeks to 12 weeks of age (FIG. 7A) and the changes in serum serotonin levels, TPH1 expression in gut and TPH2 expression in brain stem were analyzed. Bone histomorphometry was also performed. […] This rescue of the Lrp5 −/− phenotype was achieved by normalization of the gut TPH1 mRNA and of serum serotonin levels (FIGS. 7C and 7D).
Generation of Lrp5−/− (Kato et al., 2002, J. Cell Biol. 157:303-314) β-cateninfloxed/floxed (Glass et al., 2005, Dev. Cell 8:751-764), α1(I)collagen-cre transgenic (Dacquin et al., 2002, Dev. Dyn. 224:245-251) and Htt−/− (Ansorge et al., 2008, J. Neurosci. 28:199-207) mice were as described previously. Lrp5+/−;Htt+/− double heterozygous mice were generated by crossing Lrp5+/− and Htt+/− mice. Three week-old Wt or Lrp5−/− mice were administered pCPA on alternate days for 9 weeks by i.p. All animal protocols were approved by the Animal Care Committees of Columbia University.
Static histomorphometry measurements were performed as previously described in accordance with standard nomenclature, using the Osteomeasure Analysis System (Osteometrics, Inc) (Ducy et al., 2000, Cell 100:197-207). Four to 9 animals were assigned per group.
Serotonin serum levels were quantified using immunoassay kits from Fitzgerald (Serotonin) and serotonin levels in the different regions of the brain were quantified by HPLC method as described previously (Mann et al., 1992, Arch. Gen. Psychiatry 49:442-446).

primary osteoblasts = assay: Real-time PCR analysis of cyclin and osteoblast-specific gene expression in primary osteoblasts treated with serotonin; type: cell-based, mouse; conditions: serotonin 50 to 100 μM, 24 hr, vs vehicle
Protocol: To test whether serotonin regulates the expression of cyclins in osteoblasts, a real-time PCR analysis of cyclin expression in primary osteoblasts treated with serotonin or vehicle was performed. […] In contrast, expression of Runx2, Osteocalcin and Type I collagen was not modified (FIG. 8B).
Calvaria osteoblasts were extracted by triple collagenase/trypsine digestion from 4 day-old CD1 pups and differentiated with ascorbic acid as previously described (Ducy et al., 2000, Cell 100:197-207).
(§1) Osteoblasts were treated in serum-free medium with vehicle or Serotonin (50 to 100 μM, Sigma) for 24 hr. Total RNA were extracted with Trizol (Invitrogen). cDNA were generated using the ABI Reverse transcriptase system and random hexanucleotide primers. Real-time PCR was performed using superarray primers on a Stratagene real time PCR cycler and Actin expression was used as endogenous control. Chromatin immunoprecipitation assays (ChIP) were performed by standard procedures using primary osteoblasts. Microarray analysis was performed as described previously (Glass et al., 2005, Dev. Cell 8:751-764).

CREB = assay: Western blot analysis of CREB phosphorylation in primary osteoblasts treated with serotonin; type: cell-based, mouse; conditions: serotonin 50 to 100 μM
Protocol: (§2) Decreased expression of Cyclin D1 is a major feature of both Lrp5 deficiency and serotonin treatment of osteoblasts (FIGS. 1 and 8). One transcription factor that is known to modulate the expression of cyclin genes and is expressed in osteoblasts is CREB (Fu et al., 2005, Cell 122:803-815). Therefore, whether serotonin could decrease CREB activity in these cells was tested. […] Furthermore, a CREB binding site in the Cyclin D1 mouse promoter was identified and it was shown using ChIP assays that serotonin decreased binding of CREB to this promoter (FIG. 9B). These two observations raise the hypothesis that CREB could be mediating serotonin action on osteoblasts.
Osteoblasts were treated in serum-free medium with vehicle or Serotonin (50 to 100 μM, Sigma) for 24 hr. Lysates from primary osteoblasts or crushed frozen bones were prepared in RIPA buffer in the presence of protease and phosphatase inhibitors. Twenty to 60 μg of proteins were separated by SDS-PAGE in reducing conditions and transferred on nitrocellulose membrane using standard protocols. Membranes were incubated with primary antibodies including total or anti-Phospho CREB (Cell Signaling Technology).

Cyclin D1 mouse promoter = assay: ChIP analysis of CREB binding to the Cyclin D1 promoter in primary osteoblasts treated with serotonin; type: cell-based
Protocol: as §2, §1

Sequence of 5-HT1B receptor (P28222 whole entry): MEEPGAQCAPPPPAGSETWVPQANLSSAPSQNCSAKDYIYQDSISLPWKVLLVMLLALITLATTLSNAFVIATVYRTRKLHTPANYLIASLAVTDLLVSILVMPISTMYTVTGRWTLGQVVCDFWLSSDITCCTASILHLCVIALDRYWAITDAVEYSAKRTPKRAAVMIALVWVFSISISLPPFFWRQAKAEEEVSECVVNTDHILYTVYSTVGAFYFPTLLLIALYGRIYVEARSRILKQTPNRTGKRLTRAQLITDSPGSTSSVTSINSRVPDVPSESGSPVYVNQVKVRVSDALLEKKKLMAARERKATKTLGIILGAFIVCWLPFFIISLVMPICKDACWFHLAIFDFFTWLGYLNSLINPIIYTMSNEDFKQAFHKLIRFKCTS

## CN(C)CCCc1cc(C(=O)Nc2ccc(-c3ccncc3)cc2)ccc1O [GR 55562, 3-[3-(dimethylamino)propyl]-4-hydroxy-N-[4-(4-pyridinyl)phenyl]benzamide dihydrochloride]
5-HT1B receptor
  Kb: ~100 nM

## O=C(c1ccc(F)cc1)C1CCN(CCn2c(=O)[nH]c3ccccc3c2=O)CC1 [ketanserin]
Rb 5-HT1B receptors
  mode of antagonism at rb 5-HT1B receptors: silent, competitive antagonists

## CSc1ccc2c(c1)C(N1CCN(C)CC1)Cc1ccccc1S2 (stereo not drawn) [methiothepin]
Rb 5-HT1B receptors
  mode of antagonism at rb 5-HT1B receptors: silent, competitive antagonists

## NC(Cc1ccc(Cl)cc1)C(=O)O (stereo not drawn) [pCPA, para-chlorophenylalanine]
Lrp5−/− mice; Lrp5−/− mice
  gut TPH1 mRNA: normalization
Lrp5−/− mice; Lrp5−/− mice, 300 mg/kg
  bone abnormalities (bone histomorphometry): corrects bone abnormalities; also recorded: corrects their low bone phenotype; also recorded: corrected the bone abnormalities
  serum serotonin levels: normalizes; also recorded: normalization
Lrp5−/− mice; WT mice
  bone mass: without overtly affecting bone mass
Lrp5−/− mice; treated mice
  Brain TPH2 mRNA levels: not affected

## NCCc1c[nH]c2ccc(O)cc12 [serotonin, 5-hydroxytryptamine]
Primary osteoblasts
  expression of Cyclin D1: decreased
  expression of Cyclin D2: decreased
  expression of Osteocalcin: not modified
  expression of Runx2: not modified
  expression of Type I collagen: not modified
CREB
  CREB phosphorylation: significantly decreased
Cyclin D1 mouse promoter
  binding of CREB to the Cyclin D1 promoter (ChIP): decreased
